Reference: US9089565B2, “Compositions and methods for causing neurite outgrowth” (MEDICAL RESEARCH COUNCIL, priority 2009, dated 2015)

B1: BDNF: brain-derived neurotrophic factor, member of the neurotrophin nerve growth factor family, purchased from Merck (protein, UniProt P23560 19-247, looked up)
Neurotrophic factor BDNF …: APMKEANIRGQGGLAYPGVRTHGTLESVNGPKAGSRGLTSLADTFEHVIEELLDEDQKVRPNEENNKDADLYTSRVMLSSQVPLEPPLLFLLEEYKNYLDAANMSMRVRRHSDPARRGELSVCDSISEWVTAADKKTAVDMSGGTVTVLEKVPVSKGQLKQYFYETKCNPMGYTKEGCRGIDKRHWNSQCRTTQSYVRALTMDSKKRIGWRFIRIDTSCVCTLTIKRGR

Columns and labels:
[1] = tested on: DRG neurons from postnatal day 5 rats; experiment: Neurite outgrowth assay, DRG neurons with myelin-associated inhibitors; format: cell-based, rat; conditions: 24 hours
Procedure: FIG. 5. CK2 rescues postnatal rat neurones from inhibition of neurite outgrowth by the myelin-associated inhibitors, Nogo, MAG and OMgp. (A) DRG neurones from postnatal day 5 rats were cultured with or without the Nogo-66 fragment in the presence of the indicated reagents. After 24 hours from addition of the indicated reagents, cells were fixed and ã-tubulin III was detected by immunofluorescence. (B) The number of cells extending neurites of more than 20 μm and total ã-tubulin III positive cell number were counted from images taken in (A). The population of cells extending neurite-like structures of more than 20 μm was indicated as a percentage of total cell number. An average of three experiments is shown. Error bars indicate S. E. between experiments. Data were analysed with student's t test. […] (E) The number of cells extending neurites of more than 20 μm and total ã-tubulin III positive cell number were counted from images taken in (C and D). […] Cells were fixed and ã-tubulin III was detected by immunofluorescence. […] Over-expressed NgR1-Myc was detected by immunofluorescence. (H) The number of Myc-positive cells extending neurites of more than 20 μm and total Myc-positive cell number were counted from images taken in (G). […]

[2] = tested on: Entorhinal-hippocampal slices; experiment: Regeneration of entorhinal-hippocampal projection in lesioned organotypic slice culture (Dil tracing); format: cell-based, mice; conditions: slices treated with either PKA or ATP alone, 8 days
Procedure: (A) Organotypic culture of Entorhinal-hippocampal slices was prepared from 129X1/SvJJmsSlc (albino) mice postnatal day 5 and 6. Culture media were changed every 2 days. […], On the day in vitro (DIV) 10, the entorhinal-hippocampal projection was transected with sterile scalpel brade. The lesioned slices were cultured for 8 days with or without 1250 U/ml PKA and 100 μM ATP. On the DIV17, a small aliquot of Dil paste (Invitrogen) was applied on the entorhinal side of the transection. […] Location of lesion made at DIV 10 is indicated as a white dot line. (B) Intensity of Dil signal near the dentate gyrus was measured with ImageJ (version 1.42q, National institute of health, USA). Measured area (100 μm square) was indicated in (A) as a open white square. Intensity was indicated as a percentage of Dil signal in control (not lesioned). Experiment was repeated for 5 time in triplicate. Typical images are indicated in (A), and average of the 5 independent experiments was plotted in (B). A student t-test was used to assess statistical significance.
In FIG. 10, entorhinal-hippocampal slices from mice postnatal day 5 or 6 were transected on day in vitro (DIV) 10, and they were incubated with or without PKA and ATP for 8 days. […]

Nogo-A, LINGO-1 = experiment: Immunoblotting of Nogo-A and LINGO-1 in RA-treated SH-SY5Y cells; format: cell-based, human; conditions: after BDNF treatment 24 hours
Procedure: FIG. 1. BDNF promotes neurite outgrowth of RA-treated SH-SY5Y, and induces phosphorylation of NgR1. (A) SH-SY5Y cells were incubated with indicated reagents. Cell images were taken with phase contrast microscopy. (B) Number of cells extending neurite-like structures of more than 40 μm and total cell number were counted from images taken in (A). More than 300 cells were examined in each sample. The proportion of cells extending neurite-like structures of more than 40 μm was indicated as a percentage of total cell number. An average of three experiments is shown. Error bars indicate S. E. between experiments. Data were analysed with student's t test. (C) Whole cell extracts were prepared from RA-treated SH-SY5Y cells after incubation with or without BDNF for 24 hours, and were analysed by SDS-PAGE. Immunoblotting was performed with the indicated antibodies. (D) Whole cell extract prepared from cells treated with both RA and BDNF was incubated with the indicated reagents for 1 hour at 37° C. […] Whole cell extracts prepared from these cells were analysed by SDS-PAGE. […]
Cells were scraped off from dishes and washed with PBS twice, and then resuspended in PBS containing 0.1% Triton X100 and phosphatase inhibitor cocktail (Roche) and EDTA-free protease inhibitor cocktail (Roche). […] The supernatants containing 30 μg of proteins were analysed by SDS-PAGE and blotted to PVDF membrane. […]

| Molecule | neurite outgrowth in the presence of the Nogo-66 fragment [1] | location of Dil [2] | Nogo-A and LINGO-1 protein levels (Nogo-A, LINGO-1) |
| --- | --- | --- | --- |
| Nc1ncnc2c1ncn2[C@@H]1O[C@H](COP(=O)(O)OP(=O)(O)OP(=O)(O)O)[C@@H](O)[C@H]1O [ATP] | did not suppress | location of Dil was limited in the entorhinal side of the transection | – |
| B1 | fails to block | – | neither Nogo-A nor LINGO-1 showed significant changes |
